Experimental data from patent US12076364B2, “Use of interference peptide in preparation of anti-SARS-CoV-2 medicament” (KUNMING INSTITUTE OF ZOOLOGY, CHINESE ACADEMY OF SCIENCES, priority 2020, dated 2024).
Where a SMILES comes first, the peptide text is derived from it. Where no end group is shown, it is not given here.

Tested on: SARS-CoV-2
Conditions: 48 h; for inhibition of viral infection: 80 μM peptide, Vero E6 cells

Compound | inhibition of viral infection | EC50
C[C@H](NC(=O)[C@@H](N)CCCNC(=N)N)C(=O)NCC(=O)N[C@@H](CCCCN)C(=O)O [RK4, RAGK] (H-RAGK-OH; N-terminus assumed) | 99% | 10 µM
DQTKFPIVNAEL-OH [DL12] | 99% | 5 µM
HPVTGQF [HF7, HPVTGQF] | 89% | 11.4 µM
SDWKTD [SD6, SDWKTD] | 98% | 6.4 µM
